Reference: ChEMBL document CHEMBL4308864, “Targeting tyrosine kinase: Development of acridone - pyrrole - oxindole hybrids against human breast cancer” (2019)

How the values were obtained:
Type in all cases: functional
HT-29 = test: Growth inhibition of human HT-29 cells assessed as cell growth at 10^-5 M incubated for 48 hrs by sulforhodamine B assay relative to control; conditions: HT-29, 48 h, read-out: Activity
TK-10 = test: Growth inhibition of human TK10 cells assessed as cell growth at 10^-5 M incubated for 48 hrs by sulforhodamine B assay relative to control; conditions: TK-10, 48 h, read-out: Activity
SNB-19 = test: Growth inhibition of human SNB19 cells assessed as cell growth at 10^-5 M incubated for 48 hrs by sulforhodamine B assay relative to control; conditions: SNB-19, 48 h, read-out: Activity
Malme-3M = test: Growth inhibition of human MALME-3M cells assessed as cell growth at 10^-5 M incubated for 48 hrs by sulforhodamine B assay relative to control; conditions: read-out: Activity
U-251 = test: Growth inhibition of human U251 cells assessed as cell growth at 10^-5 M incubated for 48 hrs by sulforhodamine B assay relative to control; conditions: U-251, 48 h, read-out: Activity
M14 = test: Growth inhibition of human M14 cells assessed as cell growth at 10^-5 M incubated for 48 hrs by sulforhodamine B assay relative to control; conditions: M14, 48 h, read-out: Activity
SK-OV-3 = test: Growth inhibition of human SKOV3 cells assessed as cell growth at 10^-5 M incubated for 48 hrs by sulforhodamine B assay relative to control; conditions: SK-OV-3, 48 h, read-out: Activity
COLO 205 = test: Growth inhibition of human COLO205 cells assessed as cell growth at 10^-5 M incubated for 48 hrs by sulforhodamine B assay relative to control; conditions: COLO 205, 48 h, read-out: Activity
HOP-62 = test: Growth inhibition of human HOP62 cells assessed as cell growth at 10^-5 M incubated for 48 hrs by sulforhodamine B assay relative to control; conditions: HOP-62, 48 h, read-out: Activity
ACHN = test: Growth inhibition of human ACHN cells assessed as cell growth at 10^-5 M incubated for 48 hrs by sulforhodamine B assay relative to control; conditions: read-out: Activity
UACC-257 = test: Growth inhibition of human UACC257 cells assessed as cell growth at 10^-5 M incubated for 48 hrs by sulforhodamine B assay relative to control; conditions: UACC-257, 48 h, read-out: Activity
SN12C = test: Growth inhibition of human SN12C cells assessed as cell growth at 10^-5 M incubated for 48 hrs by sulforhodamine B assay relative to control; conditions: read-out: Activity
UACC-62 = test: Growth inhibition of human UACC62 cells assessed as cell growth at 10^-5 M incubated for 48 hrs by sulforhodamine B assay relative to control; conditions: UACC-62, 48 h, read-out: Activity
UO-31 = test: Growth inhibition of human UO31 cells assessed as cell growth at 10^-5 M incubated for 48 hrs by sulforhodamine B assay relative to control; conditions: UO-31, 48 h, read-out: Activity
SR = test: Growth inhibition of human SR cells assessed as cell growth at 10^-5 M incubated for 48 hrs by sulforhodamine B assay relative to control; conditions: read-out: Activity
IGROV-1 = test: Growth inhibition of human IGROV1 cells assessed as cell growth at 10^-5 M incubated for 48 hrs by sulforhodamine B assay relative to control; conditions: IGROV-1, 48 h, read-out: Activity
KM12 = test: Growth inhibition of human KM12 cells assessed as cell growth at 10^-5 M incubated for 48 hrs by sulforhodamine B assay relative to control; conditions: KM12, 48 h, read-out: Activity
SK-MEL-5 = test: Growth inhibition of human SK-MEL-5 cells assessed as cell growth at 10^-5 M incubated for 48 hrs by sulforhodamine B assay relative to control; conditions: SK-MEL-5, 48 h, read-out: Activity
HL-60(TB) = test: Growth inhibition of human HL-60(TB) cells assessed as cell growth at 10^-5 M incubated for 48 hrs by sulforhodamine B assay relative to control; conditions: HL-60, 48 h, read-out: Activity
BT-549 = test: Growth inhibition of human BT549 cells assessed as cell growth at 10^-5 M incubated for 48 hrs by sulforhodamine B assay relative to control; conditions: BT-549, 48 h, read-out: Activity
HOP-92 = test: Growth inhibition of human HOP92 cells assessed as cell growth at 10^-5 M incubated for 48 hrs by sulforhodamine B assay relative to control; conditions: HOP-92, 48 h, read-out: Activity
SF-539 = test: Growth inhibition of human SF539 cells assessed as cell growth at 10^-5 M incubated for 48 hrs by sulforhodamine B assay relative to control; conditions: SF-539, 48 h, read-out: Activity
SNB-75 = test: Growth inhibition of human SNB75 cells assessed as cell growth at 10^-5 M incubated for 48 hrs by sulforhodamine B assay relative to control; conditions: SNB-75, 48 h, read-out: Activity
RXF 393 = test: Growth inhibition of human RXF393 cells assessed as cell growth at 10^-5 M incubated for 48 hrs by sulforhodamine B assay relative to control; conditions: RXF 393, 48 h, read-out: Activity
A549 = test: Growth inhibition of human A549/ATCC cells assessed as cell growth at 10^-5 M incubated for 48 hrs by sulforhodamine B assay relative to control; conditions: A549, 48 h, read-out: Activity
CAKI-1 = test: Growth inhibition of human Caki1 cells assessed as cell growth at 10^-5 M incubated for 48 hrs by sulforhodamine B assay relative to control; conditions: CAKI-1, 48 h, read-out: Activity
OVCAR-8 = test: Growth inhibition of human OVCAR8 cells assessed as cell growth at 10^-5 M incubated for 48 hrs by sulforhodamine B assay relative to control; conditions: OVCAR-8, 48 h, read-out: Activity
MOLT-4 = test: Growth inhibition of human MOLT4 cells assessed as cell growth at 10^-5 M incubated for 48 hrs by sulforhodamine B assay relative to control; conditions: MOLT-4, 48 h, read-out: Activity

Compound | growth at 10 µM (HT-29) [%] | growth at 10 µM (TK-10) [%] | growth at 10 µM (SNB-19) [%] | growth at 10 µM (Malme-3M) [%] | growth at 10 µM (U-251) [%] | growth at 10 µM (M14) [%] | growth at 10 µM (SK-OV-3) [%] | growth at 10 µM (COLO 205) [%] | growth at 10 µM (HOP-62) [%] | growth at 10 µM (ACHN) [%] | growth at 10 µM (UACC-257) [%] | growth at 10 µM (SN12C) [%] | growth at 10 µM (UACC-62) [%] | growth at 10 µM (UO-31) [%] | growth at 10 µM (SR) [%] | growth at 10 µM (IGROV-1) [%] | growth at 10 µM (KM12) [%] | growth at 10 µM (SK-MEL-5) [%] | growth at 10 µM (HL-60(TB)) [%] | growth at 10 µM (BT-549) [%] | also measured
O=C1/C(=C\c2cccn2CCCCCCn2c3ccccc3c(=O)c3ccccc32)c2ccccc2N1c1c(Cl)cccc1Cl | 106 | 91 | 99.2 | 102 | 97.6 | 98 | 97.4 | 92.8 | 102 | 97.7 | 99.6 | 103 | 85.5 | 70.2 | 91.5 | 90.6 | 69.8 | 94.7 | 103 | 104 | growth at 10 µM (HOP-92): 75.3%; growth at 10 µM (SF-539): 104%; growth at 10 µM (SNB-75): 95.2%; growth at 10 µM (RXF 393): 97%; growth at 10 µM (A549): 96%; growth at 10 µM (CAKI-1): 87.8%; growth at 10 µM (OVCAR-8): 98.5%; growth at 10 µM (MOLT-4): 91.2%
O=C1NC(=O)C(=Cc2cccn2CCCCCn2c3ccccc3c(=O)c3ccccc32)C(=O)N1 | 103 | 101 | 101 | 119 | 96.8 | 102 | 108 | 114 | 102 | 105 | 104 | 106 | 90.8 | 79.4 | 86.8 | 99.4 | 103 | 98.7 | 92.2 | 104 | growth at 10 µM (HOP-92): 90.4%; growth at 10 µM (SF-539): 102%; growth at 10 µM (SNB-75): 101%; growth at 10 µM (RXF 393): 110%; growth at 10 µM (A549): 100%; growth at 10 µM (CAKI-1): 103%; growth at 10 µM (OVCAR-8): 102%; growth at 10 µM (MOLT-4): 93.3%
O=C1NC(=O)C(=Cc2cccn2CCCn2c3ccccc3c(=O)c3ccccc32)C(=O)N1 | 99.7 | 96.6 | 94.2 | 114 | 92.5 | 102 | 98.7 | 108 | 98.1 | 102 | 102 | 101 | 87.1 | 75.9 | 91.8 | 101 | 99.6 | 95.2 | 94 | 98.9 | growth at 10 µM (HOP-92): 87.8%; growth at 10 µM (SF-539): 102%; growth at 10 µM (SNB-75): 95.7%; growth at 10 µM (RXF 393): 95.9%; growth at 10 µM (A549): 94.6%; growth at 10 µM (CAKI-1): 96.7%; growth at 10 µM (OVCAR-8): 101%; growth at 10 µM (MOLT-4): 93.7%
